Results reported in US20100069378A1, “SUBSTITUTED INDANYL SULFONAMIDE COMPOUNDS, THEIR PREPARATION AND USE AS MEDICAMENTS” (LABORATORIOS DEL DR. ESTEVE, S.A., priority 2006, published 2010).
Where a name gives a salt, the structure may show the parent alone.

Target: T1, 5HT6 human recombinant receptor (Homo sapiens, UniProt P50406)
T1 construct: purchased Receptor Biology; host or cells: HEK-293 cell membranes (recombinant expression)
Test: Binding Test to 5-HT6 Receptors ([3H]-LSD displacement, HEK-293 membranes)
Settings: [3H]-LSD 2.7 nM, 60 min, 37° C.; for inhibition at 0.1 µM: compound at 10^−7 M; for inhibition at 0.01 µM: compound at 10^−8 M
Description: Binding Test to 5-HT6 Receptors
Membranes of HEK-293 cells expressing the 5HT6 human recombinant receptor were supplied by Receptor Biology. In these membranes the receptor concentration is 2.18 pmol/mg protein and the protein concentration is 9.17 mg/ml. The experimental protocol follows the method of B. L. Roth et al. [B. L. Roth, S. C. Craigo, M. S. Choudhary, A. Uluer, F. J. Monsma, Y. Shen, H. Y. Meltzer, D. R. Sibley: Binding of Typical and Atypical Antipsychotic Agents to 5-Hydroxytryptamine-6 and Hydroxytriptamine-7 Receptors. The Journal of Pharmacology and Experimental Therapeutics, 1994, 268, 1403] with slight modifications. The commercial membrane is diluted (dilution 1:40) with the binding buffer: 50 mM Tris-HCl, 10 mM MgCl2, 0.5 mM EDTA (pH 7.4). The radioligand used is [^3H]-LSD at a concentration of 2.7 nM with a final volume of 200 μl. Incubation is initiated by adding 100 μl of the membrane suspension (≈22.9 μg membrane protein), and continues for 60 minutes at a temperature of 37° C. Incubation ends by fast filtration in a Harvester Brandel Cell through glass fibre filters manufactured by Schleicher & Schuell GF 3362 pre-treated with a 0.5% polyethylenimine solution. The filters are washed three times with three millilitres of Tris-HCl 50 mM pH 7.4 buffer. The filters are transferred to phials and to each phial 5 ml of liquid scintillation cocktail Ecoscint H is added. The phials are allowed to reach equilibrium for several hours before being counted in a Wallac Winspectral 1414 scintillation counter. Non-specific binding is determined in the presence of 100 μM serotonin. The tests are performed in triplicate. The inhibition constants (Ki, nM) are calculated by non-linear regression analysis using the program EBDA/LIGAND [Munson and Rodbard, Analytical Biochemistry, 1980, 107, 220].

T1 sequence (P50406 whole entry): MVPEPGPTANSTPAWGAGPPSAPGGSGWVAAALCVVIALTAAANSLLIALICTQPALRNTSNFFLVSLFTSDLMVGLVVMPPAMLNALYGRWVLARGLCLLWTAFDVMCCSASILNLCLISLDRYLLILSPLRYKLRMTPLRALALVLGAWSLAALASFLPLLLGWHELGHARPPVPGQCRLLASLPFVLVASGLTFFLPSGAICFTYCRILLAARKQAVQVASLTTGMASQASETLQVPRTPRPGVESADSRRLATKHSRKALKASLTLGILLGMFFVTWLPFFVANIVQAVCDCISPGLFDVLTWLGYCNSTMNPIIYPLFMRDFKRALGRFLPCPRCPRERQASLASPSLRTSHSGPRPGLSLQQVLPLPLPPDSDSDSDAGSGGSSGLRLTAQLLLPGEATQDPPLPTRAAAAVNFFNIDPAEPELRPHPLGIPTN

Row | SMILES | inhibition at 0.1 µM [%] | inhibition at 0.01 µM [%]
1 | CN1CCN(C2CC(C)(C)c3ccc(NS(=O)(=O)c4c(Cl)nc5sccn45)cc32)CC1 (centres unmarked) [Compound 15, 6-chloro-N-[1,1-dimethyl-3-(4-methylpiperazin-1-yl)-2,3-dihydro-1H-inden-5-yl]imidazo[2,1-b][1,3]thiazole-5-sulfonamide] | 30.3 | -6.6
2 | CC1Cc2ccc(NS(=O)(=O)c3c(Cl)nc4sccn34)cc2/C1=N\NC(=N)N (centres unmarked) [Compound 11, 2-(6-{[(6-chloroimidazo[2,1-b][1,3]thiazol-5-yl)sulfonyl]amino}-2-methyl-2,3-dihydro-1H-inden-1-ylidene)hydrazinecarboximidamide] | 91.1 | 84.7
3 | CN(c1ccc2c(c1)/C(=N\NC(=N)N)CC2)S(=O)(=O)c1c(Cl)nc2sccn12 [Compound 22, 2-(6-{[(6-chloroimidazo[2,1-b][1,3]thiazol-5-yl)sulfonyl](methyl)amino}-2,3-dihydro-1H-inden-1-ylidene)hydrazinecarboximidamide hydrochloride] | 89.2 | 83.9
4 | Cc1c(S(=O)(=O)Nc2ccc3c(c2)C(N2CCN(C)CC2)CC3)sc2ccc(Cl)cc12 (centres unmarked) [Compound 3, N-[3-(4-methylpiperazin-1-yl)-2,3-dihydro-1H-inden-5-yl]-5-chloro-3-methylbenzo[b]thiophene-2-sulfonamide] | 87.9 | 55.7
5 | N=C(N)NN=C1CCc2cc(NS(=O)(=O)c3c(Cl)nc4sccn34)ccc21 [Compound 21, 2-(5-{[(6-chloroimidazo[2,1-b][1,3]thiazol-5-yl)sulfonyl]amino}-2,3-dihydro-1H-inden-1-ylidene)hydrazinecarboximidamide hydrochloride] | 86.9 | 78.1
6 | N=C(N)N/N=C1/CCc2ccc(NS(=O)(=O)c3ccc4ccccc4c3)cc21 [Compound 8, 2-{6-[(2-naphthylsulfonyl)amino]-2,3-dihydro-1H-inden-1-ylidene}hydrazinecarboximidamide hydrochloride] | 82.2 | 56.1
7 | CN1CCN(C2CCc3ccc(N(C)S(=O)(=O)c4c(Cl)nc5sccn45)cc32)CC1 (centres unmarked) [Compound 16, 6-chloro-N-methyl-N-[3-(4-methylpiperazin-1-yl)-2,3-dihydro-1H-inden-5-yl]imidazo[2,1-b][1,3]thiazole-5-sulfonamide] | 72.7 | 29
8 | CN1CCN(C2CCc3ccc(NS(=O)(=O)c4c(Cl)nc5sccn45)cc32)CC1 (racemic) [Compound 4, N-[3-(4-methylpiperazin-1-yl)-2,3-dihydro-1H-inden-5-yl]-6-chloroimidazo[2,1-b][1,3]thiazole-5-sulfonamide] | 83.4 | 63
9 | CN1CCN(C2CCc3cc(NS(=O)(=O)c4c(Cl)nc5sccn45)ccc32)CC1 (centres unmarked) [Compound 14, 6-chloro-N-[1-(4-methylpiperazin-1-yl)-2,3-dihydro-1H-inden-5-yl]imidazo[2,1b][1,3]thiazole-5-sulfonamide] | 85.8 | 75.5
10 | O=S(=O)(Nc1ccc2c(c1)C(=NNC1=NCCN1)CC2)c1c(Cl)nc2sccn12 [Compound 24, 6-chloro-N-[3-(4,5-dihydro-1H-imidazol-2-ylhydrazono)-2,3-dihydro-1H-inden-5-yl]imidazo[2,1-b][1,3]thiazole-5-sulfonamide hydrochloride] | 87.7 | 83.3
11 | CC1(C)CC(=NNC(=N)N)c2cc(NS(=O)(=O)c3c(Cl)nc4sccn34)ccc21 [Compound 20, 2-(6-{[(6-chloroimidazo[2,1-b][1,3]thiazol-5-yl)sulfonyl]amino}-3,3-dimethyl-2,3-dihydro-1H-inden-1-ylidene)hydrazinecarboximidamide hydrochloride] | 87.7 | 77.2
12 | CN1CCOc2cc(S(=O)(=O)Nc3ccc4c(c3)/C(=N\NC(=N)N)CC4)ccc21 [Compound 23, 2-(6-{[(4-methyl-3,4-dihydro-2H-1,4-benzoxazine-7-yl)sulfonyl]amino}-2,3-dihydro-1H-inden-1-ylidene)hydrazinecarboximidamide hydrochloride] | 87.3 | 69.3
13 | CN1CCOc2cc(S(=O)(=O)Nc3ccc4c(c3)C(=NNC3=NCCN3)CC4)ccc21 [Compound 26, N-[3-(4,5-dihydro-1H-imidazol-2-ylhydrazono)-2,3-dihydro-1H-inden-5-yl]-4-methyl-3,4-dihydro-2H-1,4-benzoxazine-7-sulfonamide hydrochloride] | 84.6 | 51
14 | CN1CCN(C2CCc3ccc(NS(=O)(=O)c4ccc5ccccc5c4)cc32)CC1 (centres unmarked) [Compound 2, N-[3-(4-methylpiperazin-1-yl)-2,3-dihydro-1H-inden-5-yl]naphtalene-2-sulfonamide] | 89.1 | 71.6
15 | O=S(=O)(Nc1ccc2c(c1)C(N1CCNCC1)CC2)c1c(Cl)nc2sccn12 (centres unmarked) [Compound 5, N-[3-(piperazin-1-yl)-2,3-dihydro-1H-inden-5-yl]-6-chloroimidazo[2,1-b][1,3]thiazole-5-sulfonamide] | 85.6 | 63.6
16 | N=C(N)N/N=C1/CCc2ccc(NS(=O)(=O)c3c(Cl)nc4sccn34)cc21 [Compound 9, 2-(6-{[(6-chloroimidazo[2,1-b][1,3]thiazol-5-yl)sulfonyl]amino}-2,3-dihydro-1H-inden-1-ylidene)hydrazinecarboximidamide] | 89.6 | 84.7
